A short description of data set [1]: Assessment of hydrolysis rate at pH 3.0 (acetaldehyde release, UV/Vis 276 nm). It is filed as physicochemical. The note with it: for Half life (s) at pH 3.0 / half-life: pH 3.0 citrate buffer, stirring at 200 rpm, first order release of acetaldehyde, measured for this work; for Acetaldehyde release rate relative to Comparative Samples 2-5: pH 3.0; for half-life: read-out: Half life (s) at pH 3.0 (converted). As to the method: Assessment of Hydrolysis Rate at pH 3.0
Instant beverage applications require rapid hydrolysis of the precursor molecules in order to rapidly release acetaldehyde. Because such beverages might be consumed immediately upon preparation, it is desired for the release to be as rapid as possible.
A pH 3.0 buffer solution was prepared by adding 16.43 g citric acid (CAS 77-92-9) and 4.26 g disodium citrate (CAS 144-33-2) to 1 L of deionized water. Aliquots of the Examples 1, 2 and 10 preparations were added to the buffer solution within a Distek 2100B USP 2 dissolution system stirring at 200 rpm. The concentration of acetaldehyde in solution was monitored as a function of time using a UV/Vis spectrometer probe which measured absorbance at 276 nm every 1 second. Results for comparative samples were taken from work by Gassenmeier et al.. A sample of acetaldehyde diethyl acetal was also measured directly and the result was similar to that reported by Gassenmeier et al. Examples 1, 2 and 10 released acetaldehyde faster than Comparative Samples 2-5.

The nature of data set [2]: Assessment of hydrolysis rate under spray drying feed conditions (pH 8.0 buffer/limonene emulsion). The note with it: for t50 values relative to Comparative Sample 1: pH 8.0 emulsion; for t50 at pH 8.0 (time to 50% of the maximum absorbance): pH 8.0 phosphate buffer, 0.20 g in 0.8 g limonene added to 10 g buffer (emulsion). It is filed as physicochemical. The method, then: Assessment of Hydrolysis Rate Under Spray Driving Feed Conditions
Acetaldehyde precursors suitable for rendering into dry powders must avoid releasing significant levels of acetaldehyde during various stages of processing. In particular they should resist hydrolysis during the preparation of a spray drying feed emulsion, which can be neutral to basic pH and can contain a significant volume fraction of an oil phase.
A pH 8.0 buffer solution was prepared by adding 49.92 g disodium phosphate heptahydrate (CAS 7782-85-6) and 1.93 g monosodium phosphate (CAS 7558-80-7) to 1 L of deionised water. Aliquots of 0.20 g of the Examples 1, 2 and 10 preparations were dissolved in 0.8 g of limonene (CAS 5989-25-7) added to 10 g of the buffer solution within a 30 mL Erlenmeyer flask containing a stir bar. The concentration of acetaldehyde in solution was monitored as a function of time using a UV/Vis spectrometer probe measuring absorbance at 276 nm. Stirring was periodically stopped to allow oil droplets to rise to the surface and collect an unobscured absorbance reading of the aqueous solution. Release followed mixed zero and first order kinetics. t50 (the time to 50% of the maximum absorbance) values are reported in Table 2. Comparative Sample 1 has t50 of 2.1 minutes, which is so short that a person skilled in the art would consider this compound at risk of experiencing a problematic degree of hydrolysis during processing.

As for `CCOC(C)OCC` [Comparative Sample 2, Acetaldehyde diethyl acetal, reference compound], the “Half life (s) at pH 3.0” value in data set [1] worked out at 539 s.
Regarding `CCOC(C)OC(=O)CCC(=O)OC(C)OCC` (stereo not drawn) [Example 1, Bis(1-ethoxyethyl) succinate], in data set [1], the “Acetaldehyde release rate relative to Comparative Samples 2-5” value is “faster” and the half-life is 96 s. Moreover, in data set [2], the “t50 values relative to Comparative Sample 1” value is listed as “longer” and the “t50 at pH 8.0 (time to 50% of the maximum absorbance)” value is listed as 14.0 min.
As to `CCOC(C)OC(=O)CCCCC(=O)OC(C)OCC` (stereo not drawn) [Example 2, Bis(1-ethoxyethyl) adipate], in data set [1], the “Acetaldehyde release rate relative to Comparative Samples 2-5” value is reported as “faster” and the half-life was 185 s. In addition, in data set [2], the “t50 values relative to Comparative Sample 1” value is reported as “longer” and the “t50 at pH 8.0 (time to 50% of the maximum absorbance)” value came to 44.6 min.
Regarding `CCOC(C)OC(C)=O` (stereo not drawn) [Example 10, 1-ethoxyethyl acetate, reference compound], in data set [1], the “Acetaldehyde release rate relative to Comparative Samples 2-5” value is “faster” and the “Half life (s) at pH 3.0” value is 31 s. The “t50 at pH 8.0 (time to 50% of the maximum absorbance)” value in data set [2] is recorded as 2.1 min.

The values above are taken from US10638779B2, “Hemiacetyl proflavors” (FIRMENICH SA, priority 2014, dated 2020).
